# Data as given in patent US20040053852A1, “Preventing desensitization of receptors” (priority 2001, published 2004).
# What was measured:
# heart muscle = test: Ratio of heart weight to body weight after 1 week continuous infusion; format: in vivo; conditions: mice, FIG. 1
# Method: Mice were treated with 10/ng/kg/day of GSNO, or with PBS (control) or with isoproterenol (at a dosage of 30 mg/kg/day) or with 10 mg/kg/day of GSNO plus 30 mg/kg/day isoproterenol, infused continuously for 1 week. The animals were sacrificed and the hearts were weighed and a ratio of heart weight to body weight was determined for each case. The results are set forth in FIG. 1 where hw:bw, i.e., the legend on the vertical axis, is the ratio of heart weight to total body weight and “ISO” means isoproterenol. […] The increase in size of heart (hypertrophy) is an advantage especially in the case of a patient on a left ventricular heart assist device awaiting heart transplant and in the case of a patient who has had heart surgery and cannot be disconnected from a heart pump without loss of heart function. The asterisks in FIG. 1 mean […] compared to control.
# [1] = Patient with cystic fibrosis, shortness of breath (Example VI); format: in vivo, human; conditions: inhaled GSNO 3 cc of a 10 mM solution, pH 7, 4×/day
# Method: A person with cystic fibrosis enters the hospital complaining of shortness of breath. […] They are started on inhaled GSNO (3 cc of a 10 mM solution, pH 7, 4×/day).
# β-adrenergic receptor = test: Saturation binding with radiolabeled I125-cyanopindolol in purified cardiac membrane of treated mice; format: in vivo; conditions: GSNO 10 ng/kg/day plus isoproterenol 30 mg/kg/day for 7 days
# Method: Mice were treated with 10 ng/kg/day of GSNO or PBS infused continuously for 1 week through an azlet miniosmotic pump placed subcutaneously. Another set of mice was treated for 7 days with isoproterenol (30 mg/kg/day), and the fourth and final group received for 7 days, isoproterenol (30 mg/kg/day) plus GSNO (10 ng/kg/day). The mice were sacrificed and heart tissue was removed.
# [2] = Patient with class 4 congestive heart failure (Example I); format: in vivo, human
# Method: A person with class 4 congestive heart failure enters the hospital with shortness of breath and bradyacardia. […] The patient is subsequently switched to IV dobutamine at 10 μg per kg per minute titrated to cardiac output. Over the following three days the drug is increased to 30 μg per kg per minute to maintain cardiac output. […] The patient undergoes bypass surgery and does well even though they have been viewed as at high risk.
# GRK = GRK phosphorylation of a synthetic peptide substrate with 32P-ATP (isolated system); format: biochemical; conditions: 500 μM, 50 μM, 5 μm, FIG. 3
# Method: An isolated system was provided consisting of medium, GRK, standard synthetic peptide substrate and radiolabeled ^32P-adenosine triphosphate, i.e., ^32P-ATP, as a source of phosphate. Runs were carried out on the system without additives, and with 500 μM glutathione (GSH) present and with GSNO (500 μM) present or with GSNO (50 μM) present or with GSNO (5 μm) present. The amount of bound ^32P was measured in counts per minute (CPM).
# [3] = Patient with metastatic prostate cancer, bone pain unresponsive to opiates (Example IV); format: in vivo, human; conditions: intravenous GSNO 10 nmol per kg per minute in conjunction with morphine
# Description: A person with metastatic prostate cancer is suffering from severe bone pain unresponsive to opiates.
# [4] = Heroine addict, dose tapering, withdrawal symptoms (Example V); format: in vivo, human; conditions: ethyl nitrite intravenously 2 nmol per kg per minute
# Description: A heroine addict enters a clinic where their dose is tapered gradually. In order to avoid symptoms of withdrawal, ethyl nitrite is started intravenously at 2 nmol per kg per minute and symptoms of withdrawal, including sweats and shaking, are ameliorated.
structure (smiles),measurement,setting,value
"N[C@@H](CCC(=O)N[C@@H](CSN=O)C(=O)NCC(=O)O)C(=O)O [GSNO, S-nitrosoglutathione]","size of heart muscle (hw:bw, ratio of heart weight to total body weight)",heart muscle; 10 mg/kg/day of GSNO plus 30 mg/kg/day isoproterenol infused continuously 1 week,even more effect in increasing size of heart muscle
same,"size of heart muscle (hw:bw, ratio of heart weight to total body weight)",heart muscle; GSNO 10/ng/kg/day infused continuously 1 week,increases the size of the heart muscle
same,"FEV1, acute change",[1],does not change acutely
same,FEV1 over the following 48 hours,[1],corresponding improvement in FEV1
same,symptoms of shortness of breath,[1]; following 48 hours,resolve over the following 48 hours
same,amount of β-adrenergic receptor,β-adrenergic receptor,90 fmol per mg protein
same,cardiac output,"[2]; IV GSNO 2 nmol per kg per minute, on dobutamine 30 μg per kg per minute",cardiac output improved over the following 24 hours
same,"incorporation of 32P into synthetic peptide substrate (bound 32P, CPM)",GRK,concentration dependent reduction in incorporation of ^32P
same,bone pain,[3],now relieves their pain
N[C@@H](CSN=O)C(=O)O [S-nitroso-cysteine],"incorporation of 32P into synthetic peptide substrate (bound 32P, CPM)",GRK,same result of GRK inhibition and interference with substrate phosphorylation
CCON=O [ethyl nitrite],symptoms of withdrawal,[4],ameliorated
"CC(C)NCC(O)c1ccc(O)c(O)c1 (stereo not shown) [isoproterenol, reference compound]","size of heart muscle (hw:bw, ratio of heart weight to total body weight)",heart muscle; isoproterenol 30 mg/kg/day infused continuously 1 week,increased the size of the heart muscle
same,"symptoms (shortness of breath, bradyacardia)",[2]; intravenous isoproterenol 10 μg per minute,resolution of symptoms
